Test results reported in patent US11058688B2, “Imidazopiperazine inhibitors of transcription activating proteins” (Board of Regents, The University of Texas System, priority 2018, dated 2021).

Tests used:
[1] = target: GST-CBP(1081-1197) bromodomain (Homo sapiens (Human), UniProt Q92793); assay: CBP AlphaScreen Assay; conditions: binding to biotin-H4(1-21) Ac-K5/8/12/16 peptide
Experimental: (§1) Specific binding of the CBP or BRD4 bromodomain to the acetylated peptide derived from the H4 histone substrate (tetra acetylated H4(1-21) Ac-K5/8/12/16) was measured in absence or presence of inhibitors.
(§2) The standard dose response curves were fitted by Genedata Screener software using the variable-slope model: Signal=Signalnegative control+(SignalDMSO control−Signalnegative control)/(1+(IC50/Dose)^Hill slope).
(§3) Only Signal and Dose in the equation were treated as known values.

BRD4(49-170) bromodomain = BRD4(49-170) bromodomain (Homo sapiens (Human), UniProt O60885); assay: BRD4 AlphaScreen Assay; conditions: binding to biotin-H4(1-21) Ac-K5/8/12/16 peptide
Experimental: as §1, §2, §3

Sequence of GST-CBP(1081-1197) bromodomain (Q92793 1081-1197): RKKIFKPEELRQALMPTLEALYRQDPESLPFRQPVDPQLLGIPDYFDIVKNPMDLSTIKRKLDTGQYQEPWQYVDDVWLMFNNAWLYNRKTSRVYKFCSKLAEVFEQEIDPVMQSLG

Row | Compound | IC50 [1] | IC50 (BRD4(49-170) bromodomain)
1 | CNC(=O)N1CCn2c(C3CC3(F)F)nc(-c3cccc4nc(-c5cnn(C)c5)c(C(F)F)cc34)c2C1 (stereo not shown) [Example 60, 3-(2,2-difluorocyclopropyl)-1-(3-(difluoromethyl)-2-(1-methyl-1H-pyrazol-4-yl)quinolin-5-yl)-N-methyl-5,6-dihydroimidazo[1,5-a]pyrazine-7(8H)-carboxamide] | 18 nM | 15800 nM
2 | CNC(=O)N1CCn2c(C3CCC(F)(F)CC3)nc(-c3cccc4cc(C5CCOCC5)ncc34)c2C1 [Example 84, 3-(4,4-difluorocyclohexyl)-N-methyl-1-(3-(tetrahydro-2H-pyran-4-yl)isoquinolin-8-yl)-5,6-dihydroimidazo[1,5-a]pyrazine-7(8H)-carboxamide] | 4 nM | 12100 nM
3 | CC(=O)N1CCn2cnc(-c3ccc4c(c3)c(-c3cnn(C)c3)nn4C)c2C1 [Example 10, 1-(1-(1-Methyl-3-(1-methyl-1H-pyrazol-4-yl)-1H-indazol-5-yl)-5,6-dihydroimidazo[1,5-a]pyrazin-7(8H)-yl)ethanone] | 197 nM | > 10000 nM
4 | CC(=O)N1CCn2c(C3CN(C)C3)nc(-c3ccc4c(c3)c(-c3cnn(C)c3)nn4C)c2C1 [Example 13, 1-(1-(1-Methyl-3-(1-methyl-1H-pyrazol-4-yl)-1H-indazol-5-yl)-3-(1-methylazetidin-3-yl)-5,6-dihydroimidazo[1,5-a]pyrazin-7(8H)-yl)ethanone] | 1380 nM | > 10000 nM
5 | CC(=O)N1CCn2c(C3CC3)nc(-c3cnc(N)c(OC(F)(F)F)c3)c2C1 [Example 41, 1-(1-(6-amino-5-(trifluoromethoxy)pyridin-3-yl)-3-cyclopropyl-5,6-dihydroimidazo[1,5-a]pyrazin-7(8H)-yl)ethan-1-one] | 4490 nM | > 25000 nM
6 | CNC(=O)N1CCn2c(C3CC(F)(F)C3)nc(-c3cccc4nc(-c5cnn(C)c5)c(C(F)(F)F)cc34)c2C1 [Example 20, 3-(3,3-Difluorocyclobutyl)-N-methyl-1-(2-(1-methyl-1H-pyrazol-4-yl)-3-(trifluoromethyl)quinolin-5-yl)-5,6-dihydroimidazo[1,5-a]pyrazine-7(8H)-carboxamide] | 18 nM | 25000 nM
7 | CNC(=O)N1CCn2c(C3CCN(C)CC3)nc(-c3ccc4c(c3)c(-c3cnn(C)c3)nn4C)c2C1 [Example 56, N-methyl-1-(1-methyl-3-(1-methyl-1H-pyrazol-4-yl)-1H-indazol-5-yl)-3-(1-methylpiperidin-4-yl)-5,6-dihydroimidazo[1,5-a]pyrazine-7(8H)-carboxamide] | 22 nM | > 10000 nM
8 | CC(=O)N1CCn2c(C3CC3)nc(N3CCCc4cc(-c5cccc(S(N)(=O)=O)c5)ccc43)c2C1 [Example 120, 3-(1-(7-acetyl-3-cyclopropyl-5,6,7,8-tetrahydroimidazo[1,5-a]pyrazin-1-yl)-1,2,3,4-tetrahydroquinolin-6-yl)benzenesulfonamide] | 358 nM | > 25000 nM
9 | CNC(=O)N1CCn2c(C3CCC(F)(F)CC3)nc(-c3cccc4nc(-c5cnn(C)c5)c(C(F)(F)F)cc34)c2C1 [Example 78, 3-(4,4-difluorocyclohexyl)-N-methyl-1-(2-(1-methyl-1H-pyrazol-4-yl)-3-(trifluoromethyl)quinolin-5-yl)-5,6-dihydroimidazo[1,5-a]pyrazine-7(8H)-carboxamide] | 1 nM | 13500 nM
10 | CNC(=O)c1ccc(-c2cc3cccc(-c4nc(C5CC5)n5c4CN(C(=O)NC)CC5)c3cn2)cn1 [Example 17, 3-Cyclopropyl-N-methyl-1-(3-(6-(methylcarbamoyl)pyridin-3-yl)isoquinolin-8-yl)-5,6-dihydroimidazo[1,5-a]pyrazine-7(8H)-carboxamide] | 1 nM | 5090 nM
11 | CNC(=O)N1CCn2c(C(C)C)nc(-c3ccc4c(c3)c(-c3cnn(C)c3)nn4C)c2C1 [Example 50, 3-isopropyl-N-methyl-1-(1-methyl-3-(1-methyl-1H-pyrazol-4-yl)-1H-indazol-5-yl)-5,6-dihydroimidazo[1,5-a]pyrazine-7(8H)-carboxamide] | 12 nM | > 10000 nM
12 | CNC(=O)N1CCn2c(C3CCC(F)(F)CC3)nc(-c3c(F)ccc4cc(-c5cn(C)nc5C)ncc34)c2C1 [Example 81, 3-(4,4-difluorocyclohexyl)-1-(3-(1,3-dimethyl-1H-pyrazol-4-yl)-7-fluoroisoquinolin-8-yl)-N-methyl-5,6-dihydroimidazo[1,5-a]pyrazine-7(8H)-carboxamide] | 11 nM | 10500 nM
13 | CC(=O)N1CCn2c(C3CC3)nc(N3CCCc4cc(-c5cnn(C(F)F)c5)ccc43)c2C1 [Example 110, 1-(3-cyclopropyl-1-(6-(1-(difluoromethyl)-1H-pyrazol-4-yl)-3,4-dihydroquinolin-1(2H)-yl)-5,6-dihydroimidazo[1,5-a]pyrazin-7(8H)-yl)ethan-1-one] | 185 nM | 11200 nM
14 | CC(=O)N1CCn2c(C3CCN(C)CC3)nc(-c3ccc4c(c3)c(-c3cnn(C)c3)nn4C)c2C1 [Example 54, 1-(1-(1-methyl-3-(1-methyl-1H-pyrazol-4-yl)-1H-indazol-5-yl)-3-(1-methylpiperidin-4-yl)-5,6-dihydroimidazo[1,5-a]pyrazin-7(8H)-yl)ethan-1-one] | 141 nM | > 10000 nM
15 | CNC(=O)N1CCn2c(C3CCC(F)(F)CC3)nc(-c3c(F)ccc4cc(-c5cnc(C)s5)ncc34)c2C1 [Example 93, 3-(4,4-difluorocyclohexyl)-1-(7-fluoro-3-(2-methylthiazol-5-yl)isoquinolin-8-yl)-N-methyl-5,6-dihydroimidazo[1,5-a]pyrazine-7(8H)-carboxamide] | 2 nM | > 25000 nM
16 | CNC(=O)N1CCn2c(C3CC3)nc(-c3cncc4cc(-c5cnn(C)c5)c(C(F)F)cc34)c2C1 [Example 40, 3-Cyclopropyl-1-(6-(difluoromethyl)-7-(1-methyl-1H-pyrazol-4-yl)isoquinolin-4-yl)-N-methyl-5,6-dihydroimidazo[1,5-a]pyrazine-7(8H)-carboxamide] | 2 nM | 4780 nM
17 | CNC(=O)N1CCn2c(C3CCC(F)(F)CC3)nc(-c3cccc4cc(-c5cnc(C)s5)ncc34)c2C1 [Example 97, 3-(4,4-difluorocyclohexyl)-N-methyl-1-(3-(2-methylthiazol-5-yl)isoquinolin-8-yl)-5,6-dihydroimidazo[1,5-a]pyrazine-7(8H)-carboxamide] | 1 nM | 3320 nM
18 | CNC(=O)N1CCn2c(C3CCOCC3)nc(-c3cccc4cc(N5CCOCC5)ncc34)c2C1 [Example 63, N-methyl-1-(3-morpholinoisoquinolin-8-yl)-3-(tetrahydro-2H-pyran-4-yl)-5,6-dihydroimidazo[1,5-a]pyrazine-7(8H)-carboxamide] | 14 nM | 23600 nM
19 | CC(=O)N1CCC(c2nc(-c3ccc4c(c3)c(-c3cnn(C)c3)nn4C)c3n2CCN(C(C)=O)C3)CC1 [Example 53, 1-(4-(7-acetyl-1-(1-methyl-3-(1-methyl-1H-pyrazol-4-yl)-1H-indazol-5-yl)-5,6,7,8-tetrahydroimidazo[1,5-a]pyrazin-3-yl)piperidin-1-yl)ethan-1-one] | 176 nM | > 10000 nM
20 | COc1ccc(-c2nc(C3CC3)n3c2CN(C(C)=O)CC3)cc1OC [Example 42, 1-(3-cyclopropyl-1-(3,4-dimethoxyphenyl)-5,6-dihydroimidazo[1,5-a]pyrazin-7(8H)-yl)ethan-1-one] | 4260 nM | > 25000 nM
21 | CNC(=O)N1CCn2c(C3CCOCC3)nc(-c3c(F)ccc4cc(-c5cnc(C)s5)ncc34)c2C1 [Example 89, 1-(7-fluoro-3-(2-methylthiazol-5-yl)isoquinolin-8-yl)-N-methyl-3-(tetrahydro-2H-pyran-4-yl)-5,6-dihydroimidazo[1,5-a]pyrazine-7(8H)-carboxamide] | 2 nM | 6840 nM
22 | CNC(=O)N1CCn2c(C3CCOCC3)nc(-c3cccc4nc(-c5cnn(C)c5)c(C#N)cc34)c2C1 [Example 64, 1-(3-cyano-2-(1-methyl-1H-pyrazol-4-yl)quinolin-5-yl)-N-methyl-3-(tetrahydro-2H-pyran-4-yl)-5,6-dihydroimidazo[1,5-a]pyrazine-7(8H)-carboxamide] | 4 nM | 22800 nM
23 | CC(=O)N1CCn2c(C3CCOC3)nc(-c3cc4c(-c5cnn(C)c5)nn(C)c4cc3F)c2C1 (stereo not shown) [Example 103, 1-(1-(6-fluoro-1-methyl-3-(1-methyl-1H-pyrazol-4-yl)-1H-indazol-5-yl)-3-(tetrahydrofuran-3-yl)-5,6-dihydroimidazo[1,5-a]pyrazin-7(8H)-yl)ethan-1-one] | 147 nM | > 25000 nM
24 | CNC(=O)N1CCn2c(C3CC3)nc(-c3cccc4cc(-c5cnn(C)c5)ncc34)c2C1 [Example 124, 3-cyclopropyl-N-methyl-1-(3-(1-methyl-1H-pyrazol-4-yl)isoquinolin-8-yl)-5,6-dihydroimidazo[1,5-a]pyrazine-7(8H)-carboxamide] | 2 nM | 6480 nM
25 | CNC(=O)N1CCn2c(C3CCOCC3)nc(-c3cccc4cc(-c5cnc(C)s5)ncc34)c2C1 [Example 95, N-methyl-1-(3-(2-methylthiazol-5-yl)isoquinolin-8-yl)-3-(tetrahydro-2H-pyran-4-yl)-5,6-dihydroimidazo[1,5-a]pyrazine-7(8H)-carboxamide] | 1 nM | 3480 nM
26 | CC(=O)N1CCn2c(C3CC3)nc(N3CCCc4cc(-c5cncc(S(C)(=O)=O)c5)ccc43)c2C1 [Example 107, 1-(3-cyclopropyl-1-(6-(5-(methylsulfonyl)pyridin-3-yl)-3,4-dihydroquinolin-1(2H)-yl)-5,6-dihydroimidazo[1,5-a]pyrazin-7(8H)-yl)ethan-1-one] | 510 nM | > 25000 nM
